Assay results published in patent US7892350B2, “Sacrificial agents for fly ash concrete” (Boral Material Technologies Inc., priority 2003, dated 2011).

Legend:
[1] = Precipitation in slurry extract or leachate; type: physicochemical; settings: pH 12.5, entries in parentheses
[2] = Adsorption/precipitation of SA or AEA in 10 wt % aqueous fly ash or cement slurries at pH 12.5; type: physicochemical; settings: initial SA 3 mM
[3] = Paste air entrainment, Minimum air protocol
Method: Preparation of pastes: Pastes were prepared by pouring 400 g of cementitious powder in the 350-400 g of solution (water and additives) in a vessel (8.4 cm dia,×14.5 cm height) while gently stirring with a spatula; the exact quantity of water depends on the selected W/B ratio (see below); rapid hand mixing was continued for 1 minute, followed by intense stirring at 25° C. during 2 min using a hand-held mixer (BRAUN model MR400). The level of air entrained is dependent on the mode of utilisation of the mixer, namely the height of the mixer from the bottom of the vessel and the length of the mixing stroke; the following protocols were adopted.
Minimum air protocol: The BRAUN mixer is positioned at 1.0 inch from the bottom of the mixing vessel and the up-down motion of the mixer is limited to a 1.0 inch displacement; this provided ‘minimum air’ entrained air levels and is later referred to as ‘Minimum air protocol’ (Results reported in Table 6, col. 1 and Table 7).
Fluidity measurements: For all air entrainment measurements, the initial fluidity of the paste (without additives) was controlled using the ‘mini-slump’ procedure widely used for paste and grouts. In this protocol, a portion of the paste was transferred into the min-slump cone (a 2¼″ high, 1½″ bottom diameter, ¾″ top diameter cone); excess paste was skimmed-off with a straight; the cone was then raised and the spread diameter of the paste was recorded (average of two measurements). The fluidity is measured at 10 minutes after mixing. The paste is returned to the batch and reserved for subsequent AE measurements. The fluidity of the paste (without SA and AEA) is adjusted by changing the amount of water (water/cementitious ratio) which yields a spread diameter of 115±5 mm. The latter is monitored regularly.
Air entrainment measurements: For air entrainment measurements, a portion of the paste was transferred to overfill a Plexiglas cylinder (3¾ inches height, 2 inches interior diameter), which was then levelled flush to the top of the cylinder with a straight edge. The mass of the filled cylinder, minus the weight of the empty cylinder, is then recorded and used to calculate the amount of air according to the following formula: […]
This procedure was carried out at three times at 30 min. intervals (6, 36 and 66 min); the paste was let to stand at rest between measurements, and was stirred gently by hand for one minute prior to the subsequent air entrainment measurements.
Typical mixture compositions for air entrainment measurements in pastes containing a single additive using ‘Minimum air protocol’ (results shown in Table 6, col. 1): […]

[4] = Paste air entrainment, Maximum air protocol
Outline: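 Pastes of 400 g cementitious powder in water plus additives, hand-mixed 1 min then mixer-stirred 2 min at 25 °C; water/binder ratio set so additive-free paste gives 115±5 mm mini-slump spread at 10 min. Air content calculated from mass of paste filling a fixed-volume cylinder at 6, 36 and 66 min, paste at rest between readings and hand-stirred 1 min beforehand.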

[5] = Air entrainment in fresh concrete (ASTM C 231-97)
Method: The sacrificial agents were added to the cementitious mixtures in several ways: • 1) mixing together with water and air entrainment agent solution • 2) premixed with the fly ash • 3) post-added into the fresh concrete which already contained the air entrainment agent.

OCCOc1ccccc1 [EGPE, Ethylene glycol phenyl ether]
Precipitation (wt % precipitated) ([1]; solution extracted from 10 wt % fly ash B1 (LOI 4.36%) slurry): 0 wt %
Precipitation (wt % precipitated) ([1]; solution extracted from 10 wt % fly ash C1, class C (LOI 1.62%) slurry): 0 wt %
Precipitation (wt % precipitated) ([1]; solution extracted from 10 wt % fly ash C2 (LOI 3.32%) slurry): 0 wt %
Precipitation (wt % precipitated) ([1]; solution extracted from 10 wt % fly ash M1 (LOI […]) slurry): 1 wt %
Precipitation (wt % precipitated) ([1]; solution extracted from 10 wt % fly ash M2 (LOI 5.34%) slurry): 0 wt %
Precipitation (wt % precipitated) ([1]; solution extracted from 10 wt % fly ash M3 (LOI 11.33%) slurry): 0 wt %
Precipitation (wt % precipitated) ([1]; solution extracted from 10 wt % fly ash N (LOI 0.30%) slurry): 0 wt %
Adsorption (wt % Adsorbed) ([2]; 10 wt % fly ash B1 (LOI 4.36%) slurry, Air 30/Air 40 0.105 wt %): 12 wt %
Adsorption (wt % Adsorbed) ([2]; 10 wt % fly ash C1, class C (LOI 1.62%) slurry, Air 30/Air 40 0.105 wt %): 12 wt %
Adsorption (wt % Adsorbed) ([2]; 10 wt % fly ash C2 (LOI 3.32%) slurry): 6 wt %
Adsorption (wt % Adsorbed) ([2]; 10 wt % fly ash M1 (LOI […]) slurry, Air 30/Air 40 0.105 wt %): 4 wt %
Adsorption (wt % Adsorbed) ([2]; 10 wt % fly ash M2 (LOI 5.34%) slurry, Air 30/Air 40 0.105 wt %): 14 wt %
Adsorption (wt % Adsorbed) ([2]; 10 wt % fly ash M3 (LOI 11.33%) slurry, Air 30/Air 40 0.105 wt %): 14 wt %
Adsorption (wt % Adsorbed) ([2]; 10 wt % fly ash N (LOI 0.30%) slurry): 1 wt %
Air entrained ([3]; 50:50 fly ash B1 (LOI 4.36%):PCA paste, 0.1 wt % Air 30 alone or with 0.05 wt % of the SA): 4 vol %
Air entrained ([3]; 50:50 fly ash C1 (LOI 1.62%):PCA paste, 0.1 wt % Air 30 alone or with 0.05 wt % of the SA): 5 vol %
Air entrained ([3]; 50:50 fly ash D (LOI […]):PCA paste, 0.1 wt % Air 30 alone or with 0.05 wt % of the SA): 5 vol %
Air entrained ([3]; 50:50 fly ash M1 (LOI […]):PCA paste, 0.1 wt % Air 30 alone or with 0.05 wt % of the SA): 5 vol %
Air entrained ([3]; 50:50 fly ash M2 (LOI 5.34%):PCA paste, 0.1 wt % Air 30 alone or with 0.05 wt % of the SA): 4 vol %
Air entrained ([3]; 50:50 fly ash M3 (LOI 11.33%):PCA paste, 0.1 wt % Air 30 alone or with 0.05 wt % of the SA): 4 vol %
Air entrained ([3]; 50:50 fly ash R (LOI […]):PCA paste, 0.1 wt % Air 30 alone or with 0.05 wt % of the SA): 5 vol %
Air entrained ([3]; PCA cement paste, 0.1% SA or AEA alone, Minimum air protocol): 0 vol %
Average of air entrained ([3]; over the fly ash:PCA pastes of Table 7, 0.1 wt % Air 30 alone or with 0.05 wt % of the SA): 4%
Air entrained at 66 min ([4]; 50:50 fly ash B1 (LOI 4.36%):PCA paste, Air 30 (0.0125%)/NS/X=1/4/4, X = the labelled SA): 4 vol %
Air entrained at 66 min ([4]; 50:50 fly ash B1 (LOI 4.36%):PCA paste, Air 30 (0.0125 wt %)/ND/X=1/4/4, X = the labelled SA): 14 vol %
Air entrained at 66 min ([4]; 50:50 fly ash C1 (LOI 1.62%):PCA paste, Air 30 (0.0125%)/NS/X=1/4/4, X = the labelled SA): 9 vol %
Air entrained at 66 min ([4]; 50:50 fly ash C1 (LOI 1.62%):PCA paste, Air 30 (0.0125 wt %)/ND/X=1/4/4, X = the labelled SA): 19 vol %
Air entrained at 66 min ([4]; 50:50 fly ash D (LOI […]):PCA paste, Air 30 (0.0125%)/NS/X=1/4/4, X = the labelled SA): 15 vol %
Air entrained at 66 min ([4]; 50:50 fly ash D (LOI […]):PCA paste, Air 30 (0.0125 wt %)/ND/X=1/4/4, X = the labelled SA): 22 vol %
Air entrained at 66 min ([4]; 50:50 fly ash M1 (LOI […]):PCA paste, Air 30 (0.0125%)/NS/X=1/4/4, X = the labelled SA): 11 vol %
Air entrained at 66 min ([4]; 50:50 fly ash M1 (LOI […]):PCA paste, Air 30 (0.0125 wt %)/ND/X=1/4/4, X = the labelled SA): 18 vol %
Air entrained at 66 min ([4]; 50:50 fly ash M2 (LOI 5.34%):PCA paste, Air 30 (0.0125%)/NS/X=1/4/4, X = the labelled SA): 3 vol %
Air entrained at 66 min ([4]; 50:50 fly ash M2 (LOI 5.34%):PCA paste, Air 30 (0.0125 wt %)/ND/X=1/4/4, X = the labelled SA): 11 vol %
Air entrained at 66 min ([4]; 50:50 fly ash M3 (LOI 11.33%):PCA paste, Air 30 (0.0125%)/NS/X=1/4/4, X = the labelled SA): 3 vol %
Air entrained at 66 min ([4]; 50:50 fly ash M3 (LOI 11.33%):PCA paste, Air 30 (0.0125 wt %)/ND/X=1/4/4, X = the labelled SA): 13 vol %
Air entrained at 66 min ([4]; 50:50 fly ash R (LOI […]):PCA paste, Air 30 (0.0125%)/NS/X=1/4/4, X = the labelled SA): 11 vol %
Air entrained at 66 min ([4]; 50:50 fly ash R (LOI […]):PCA paste, Air 30 (0.0125 wt %)/ND/X=1/4/4, X = the labelled SA): 18 vol %
Air entrained ([4]; PCA cement paste, 0.0125% SA or AEA alone, Maximum air protocol): 1 vol %
Air entrained at 66 min ([4]; PCA paste, no fly ash, Air 30 (0.0125 wt %)/ND/X=1/4/4, X = the labelled SA): 23 vol %
air entrained (average) ([4]; fly ash:cement pastes, SA added at four (4) times the fixed Air 30 dosage (0.0125%)): 7%
Average of air entrained at 66 min ([4]; over the fly ash:PCA pastes of Table 9, Air 30 (0.0125 wt %)/ND/X=1/4/4, X = the labelled SA): 17%
Air ([5]; 25% B1 fly ash (LOI 1.9%):PCA concrete, Air 40 0.003 % CM + EGPE 0.100 % CM): 5.1%
Air ([5]; 25% B1 fly ash (LOI 1.9%):PCA concrete, Air 40 0.006 % CM + EGPE 0.100 % CM): 6.2%
Air ([5]; 25% B1 fly ash (LOI 1.9%):PCA concrete, Air 40 0.009 % CM + EGPE 0.100 % CM): 7.4%
Air ([5]; Air 30 0.006 % CM, EGPE 0.100 % CM added during batching, PCA cement, B1 fly ash 25 %, LOI […]): 11.4%
Air ([5]; Air 30 0.006 % CM, EGPE 0.100 % CM premixed with fly ash, PCA cement, B1 fly ash 25 %, LOI […]): 10.0%
Air ([5]; Air 40 0.003 % CM, EGPE 0.100 % CM added during batching, PCA cement, B1 fly ash 25 %, LOI […]): 2.7%
Air ([5]; Air 40 0.003 % CM, EGPE 0.100 % CM premixed with fly ash, PCA cement, B1 fly ash 25 %, LOI […]): 2.9%
Air ([5]; Air 40 0.008 % CM, EGPE 0.100 % CM added during batching, PCA cement, B1 fly ash 25 %, LOI […]): 4.9%
Air ([5]; Air 40 0.008 % CM, EGPE 0.100 % CM premixed with fly ash, PCA cement, B1 fly ash 25 %, LOI […]): 4.7%
% air, levelling-off ([5]; B1 fly ash ([…] LOI):PCA concrete, Air 40 0.003 wt %, increasing dosages of EGPE): 6-8 vol %
% air ([5]; B1 fly ash ([…] LOI):PCA concrete, EGPE 0.1 wt % with increasing Air 40 dosage): approx 5%
Air ([5]; PCA cement concrete, no fly ash, Air 40 0.003 % CM + EGPE 0.050 % CM): 6.5%
Air ([5]; PCA cement concrete, no fly ash, Air 40 0.003 % CM + EGPE 0.100 % CM): 6.5%
Air ([5]; PCA cement concrete, no fly ash, Air 40 0.003 % CM + EGPE 0.200 % CM): 6.2%
Air ([5]; PCA cement concrete, no fly ash, Air 40 0.006 % CM + EGPE 0.050 % CM): 8.1%
Air ([5]; PCA cement concrete, no fly ash, Air 40 0.006 % CM + EGPE 0.100 % CM): 8.3%
Air ([5]; PCA cement concrete, no fly ash, Air 40 0.006 % CM + EGPE 0.200 % CM): 8.0%
Air ([5]; PCC cement concrete, no fly ash, no Air 40, EGPE alone 0.010 % CM): 1.9%
Air ([5]; PCC cement concrete, no fly ash, no Air 40, EGPE alone 0.030 % CM): 2.0%
Air ([5]; PCC cement concrete, no fly ash, no Air 40, EGPE alone 0.050 % CM): 2.0%
Air ([5]; PCC cement concrete, no fly ash, no Air 40, EGPE alone 0.100 % CM): 2.1%
increase in air entrained above the control values ([5]; cement-only concrete without air entrainment agents, various dosages): about 1%
